Experimental data from patent US20150313913A1, “POSITIVE ALLOSTERIC MODULATORS OF THE GABA-A RECEPTOR IN THE TREATMENT OF AUTISM” (UNIVERSITY OF WASHINGTON THROUGH ITS CENTER FOR …, priority 2013, published 2015).
Entries after “also recorded” stand apart in the source; their conditions may differ.

Columns and labels:
Format in all cases: in vivo
Scn1a+/− mice [1] = assay: Open field and elevated plus maze tests (sedation, anxiolysis)
Description: Open field test was performed as previously described^23. Briefly, each individual mouse was placed near the wall-side of 38×42 cm open-field arena, and the movement of the mouse was recorded by USB webcam (LIFECAM™ HD-6000, MICROSOFT™) and PC-based video capture software (WINAVI VIDEO CAPTURE™, ZJMEDIA DIGITAL TECHNOLOGY™) for 10 min. The recorded video file was further analyzed by off-line video tracking software (ETHOVISION™ XT 7.0, NOLDUS TECHNOLOGY™). Total distance traveled and time in center (15×15 cm imaginary square) were measured. The open field arena was cleaned with 70% ethanol and wiped with paper towels between each trial.
The elevated plus maze is a plus-shaped maze that is elevated 60 cm above the floor. It consists of two closed arms surrounded by 15-cm high transparent walls and two open arms (5×25 cm) with a small ledge along the side of two open arms to prevent falling from the maze during the test. Each mouse was placed in the center (5×5 cm) of the maze facing one of the closed arms. During the 10-min test period, the movement of the mouse was recorded by a USB webcam (LIFECAM™ HD-6000, MICROSOFT™) and PC-based video capture software (WINAVI VIDEO CAPTURE™, ZJ MEDIA DIGITAL TECHNOLOGY™). The recorded video file was further analyzed by off-line video tracking software (ETHOVISION™ XT 7.0). Times spent in closed arms, center, and open arms were measured. The maze was cleaned with 70% ethanol and wiped with paper towels between each trial.
Oral administration is specifically contemplated for the methods described herein, and is well known for both benzodiazepines and non-BDZ GABA-A enhancers as described herein.

C57BL/6J mice [2] = assay: Barnes circular maze test; conditions: 0.05 mg/kg
Text: (§1) The Barnes circular maze is a planar, round white PLEXIGLAS™ platform (92 cm diameter), 1 m above the floor, with 20 evenly spaced holes (7 cm diameter) located 5 cm from the perimeter. A black escape box (15×7×7 cm) was placed under one hole. Spatial cues with distinct patterns and shapes were placed on the wall of the testing room. A 500 lux light was turned on during the trial. An experimenter remained in the same place with minimal movement throughout the trials. The platform and the escape box were cleaned thoroughly with 70% ethanol and paper towels between each trial to remove olfactory cues. One day before the training trials began, test mice were habituated in the target box for 3 min. The training trials were repeated for 4 consecutive days, and 3 trials were performed each day with 20 min inter-trial intervals. At the beginning of each trial, a test mouse was placed in a cylindrical holding chamber (10 cm diameter) located in the center of the maze. After 10 s of holding time, the mouse was allowed to search for the target hole for 3 min. […] When the mouse entered the escape box, the light was turned off and the mouse remained undisturbed for 1 min. The movement of the mouse was recorded, and the number of errors made and the latency to find the target hole were measured during the training trials by video tracking software. On day 5, the probe trial was performed with each mouse. The escape box was removed, and the test mouse was allowed to find the target hole freely for 90 s. During the probe trial, total distance traveled and the latency to find the target hole were measured. % correct pokes and % time in the target area were also measured.
(§2) The number of errors made and the latency to find the target hole were measured during the 3 min-training trials by video tracking software.
(§3) During the 90 second-probe trial, the latency to find the target hole, % correct pokes, and % time in the target area were measured by the video-tracking software (EthoVision XT 8.5, Noldus Technology).

BTBR mice [3] = assay: Barnes circular maze test
Text: as §1, §2, §3

Scn1a+/− mice [4] = assay: Open-field social interaction test; conditions: single i.p. 0.0625 mg/kg 30 min before test, listed as CLZ
Description: (§4) The open-field social interaction test was performed as described previously^64 with minor modifications. The test was performed in the open field arena that was used for the open field test. An age- and gender-matched C57Bl/6J mouse (M) caged in a rectangular wire mesh cage (6×6×10 cm), was used as a social cue. The stranger mouse had never been exposed to the test mouse. The test mouse was placed in the open field arena with an empty wire cage for 10 min for habituation. Following the 10 min session, a stranger mouse was placed in the same cage and the test mouse was allowed to explore the arena for another 10 min. The empty cage or caged stranger mouse was placed in the center of one quadrant of the arena, and immobilized on the floor of the arena with double-sided tape. […] The movement of the mouse was recorded with a USB webcam (LIFECAM™ HD-6000, MICROSOFT™) and PC-based video-capture software (WINAVI™ Video Capture, ZJ MEDIA DIGITAL TECHNOLOGY™). The recorded video file was further analyzed by off-line video tracking software (ETHOVISION™ XT 7.0). Time spent in the cage-containing quadrant, and time spent in the area 5 cm proximal to the cage were measured. Immobilization behavior was also measured by video tracking software. […] All data shown are means±s.e.m. and analyzed using two-way ANOVA with Bonferroni's post hoc analysis. […]

wild-type mice = assay: Open-field social interaction test; conditions: 0.0625 mg/kg, listed as CLZ
Description: as §4

C57BL/6J mice [5] = assay: Open-field reciprocal social interaction test; conditions: same treatment
Description: (§5) A test mouse and an age- and gender-matched stimulus mouse with a mixed C57BL/6J×129 genetic background were introduced in an open field arena (50×50 cm). Mice were socially naïve with each other. The social interactions of mice were recorded by USB webcam (LifeCam HD-6000, Microsoft) and PC-based video capture software (WinAVI Video Capture, ZJ Media Digital Technology) for 10 min.

BTBR mice [6] = assay: Open-field reciprocal social interaction test; conditions: for nose-to-nose interaction with stranger mouse / total (reciprocal) social interaction with stranger mouse: low dose (0.05 mg/kg), Pre/CLZ/Post at one-week intervals, 0.05 mg/kg
Description: as §5

## O=C1CN=C(c2ccccc2Cl)c2cc([N+](=O)[O-])ccc2N1 [Clonazepam]
Scn1a+/− mice [1]; 0.0625 mg/kg
  anxiolytic effect in elevated plus maze: did not elicit anxiolytic effects
  anxiolytic effect in open field test: not observed
  locomotor activity in open field test: not changed
Scn1a+/− mice [1]; both wild-type and Scn1a+/− mice, dose series
  sedation: dose-dependent sedation
Scn1a+/− mice [1]; open field and elevated plus maze, Scn1a+/− mice
  maximal intraperitoneal dose that did not cause significant sedation or anxiolytic effect: 0.0625 mg/kg
C57BL/6J mice [2]
  learning performance and spatial memory: regardless of clonazepam treatment; also recorded: significantly worsened
BTBR mice [3]; 0.05 mg/kg
  spatial learning during training sessions (latency, errors): significantly improved
BTBR mice [3]; single low dose 30 min prior
  spatial memory in probe trials: increased
Scn1a+/− mice [4]
  social interaction, open field social interaction test: completely rescued; also recorded: completely restored; also recorded: completely recovered
wild-type mice
  social interaction, open field social interaction test: no effect; also recorded: absent; also recorded: not changed
C57BL/6J mice [5]
  social interaction and stereotyped behavior: unaffected
C57BL/6J mice [5]; listed as CLZ
  social interaction and stereotyped behavior: no significant effect
BTBR mice [6]
  nose-to-nose interaction with stranger mouse: significantly enhanced
  total (reciprocal) social interaction with stranger mouse: significantly enhanced
BTBR mice [6]; listed as CLZ
  nose-to-nose interaction with stranger mouse: reversibly increases
  total (reciprocal) social interaction with stranger mouse: reversibly increases
BTBR mice [6]; low dose (FIG. 8C)
  stereotyped circling behavior in open field with stranger mouse: reduces
